The record followed here is patent US20190125735A1, “INHIBITION OF P38 MAPK FOR THE TREATMENT OF CANCER” (Board of Regents, The University of Texas System, priority 2015, published 2019).

Structures are written as SMILES.

Test [1] has as its system HMLE-Snail, HMLE-Twist, MDA-MB-231 and SUM159 cells. As to the kind of experiment: EMT marker immunoblotting in mesenchymal mammary cells. The note with it: relative to vehicle-treated cells. Type of test: cell-based, human. The method, then:
(§1) It was next ascertained whether p38 inhibition compromises the maintenance of the established EMT phenotype.
Immunoblotting and immunofluorescence (Mani et al., 2008) were performed as previously described. Primary antibodies were as follows: β-actin (Sigma, St Louis, Mo., USA; A3853), mouse anti-human FOXC2 (Dr. Naoyuki Miura, Hamamatsu University School of Medicine, Japan), goat polyclonal anti-FOXC2 (Santa Cruz Biotechnology, Dallas, Tex., USA; sc-21397), p-p38 (Cell Signaling, Danvers, Mass., USA; 4511), p38 (Cell Signaling; 9211), E-cadherin (BD Biosciences, San Jose, Calif., USA; 61081), fibronectin (BD Biosciences; 610077), vimentin (Novus Biologicals, Littleton, Colo., USA; NB200-623), ZEB1 (Novus Biologicals; NBP1-05987), and HA (Covance, Princeton, N.J., USA; MMS-101P).

Test [2] has as its system BCR-ABL+ mouse ALL cells seeded on MSCs. Kind of test: Post-screening leukemic cell cluster formation underneath pretreated MSCs. The note with it: imatinib 5 μM with SB203580 20 μM or dexamethasone 50 nM, 4 days + 24 hours. Type of test: cell-based. From the text:
Phase-contrast images of co-cultured MSCs and ALL cells were obtained using an Axio Observer.Z1 microscope, an AxioCam MR camera, and AxioVision software (Zeiss, Oberkochen, Germany). For screening, a cluster was defined as a group of more than five leukemic cells under the MSCs. The total number of leukemic cell clusters was the average number of clusters from three different fields (10× objective). For post-screening experiments, a cluster was defined as a group of more than 10 leukemic cells under the MSCs. The total number of leukemic cell clusters was the average number of clusters from 10 different fields (10× objective).

For the next test, the system named is Foxc2. Kind of test: Foxc2/FOXC2 protein immunoblotting in 4T1 cells. Type of test: cell-based, mouse.
The next test has as its system mesenchymal cells. Kind of test: Scratch/wound-healing assay of mesenchymal mammary cells. In kind it is cell-based, human. The source says:
The effects of p38 inhibition on invasive potential, which strongly correlates with the formation of invadopodia, was investigated. These specialized actin-based cell membrane protrusions secrete matrix metalloproteinases, enabling degradation of the nearby extracellular matrix (Eckert et al., 2011). The formation of invadopodia was quantified by assessing the ability of cells to degrade FITC-conjugated gelatin.
(§2) Quantification of invadopodia (Eckert et al., 2011), scratch/wound-healing assays (Sarkar et al., 2015) fluorescence-activated cell sorting (FACS), and sphere-formation assays (Mani et al., 2008) were conducted as described previously.

The next test deals with 4T1 cells. Kind of test: 4T1 orthotopic mouse mammary carcinoma model (primary tumor, lung metastasis, CTCs). In kind it is in vivo. From the text: In order to investigate this, the 4T1 mouse mammary carcinoma model, which recapitulates many of the characteristics of human breast cancer, was employed.
Tumor progression was monitored weekly using caliper measurements and bioluminescence. Starting week 3 post-implantation, 5 mice per group were sacrificed and surgically excised the primary tumors and lungs were surgically excised. […] This observation was corroborated by caliper measurements (FIG. 15C) and the bioluminescent signal emitted by these tumors (FIGS. 20A, 20B). Indeed, there were no significant differences in the latency and growth rates of the vehicle- and SB203580-treated primary tumors during this timecourse (FIGS. 15C and 20B).
NOD/SCID and BALB/c mice were purchased from the Jackson Laboratory (Bar Harbor, Me., USA). To examine primary tumor formation and spontaneous metastasis, luciferase-labeled 4T1 cells (1×10^4 or 5×10^4) were injected into the inguinal mammary fat-pad of BALB/c mice. For experimental metastasis studies, 0.5×10^6 luciferase-labeled MDA-MB-231 cells were injected into NOD/SCID mice via the tail vein. […] Mice were assessed weekly for tumor growth and metastasis via subcutaneous injection of D-Luciferin (150 mg/kg; Caliper LifeSciences, Hopkinton, Mass., USA) and bioluminescent imaging (IVIS imaging system 200 series; Xenogen Corporation, PerkinElmer, Waltham, Mass., USA). Primary tumor size was measured with a caliper as the product of two perpendicular diameters (mm^2). At the indicated timepoints, primary tumors and lungs were surgically excised, imaged and processed for histology.
Mice were orthotopically injected with red fluorescent protein (RFP)/luciferase-labeled 4T1 cells. Starting week 3 post-injection, blood was collected, via cardiac puncture, in EDTA-coated tubes and treated with Ammonium-Chloride-Potassium lysing buffer (Invitrogen). Cells were cultured in RPMI-1640 medium containing 10% fetal bovine serum and penicillin/streptomycin. RFP-positive colonies were counted after 3 days.

Test [3] has as its system HMLE-Snail, HMLE-Twist, MDA-MB-231 and SUM159 cells. As to the kind of experiment: Sphere formation of mesenchymal mammary cells. Type of test: cell-based, human. The conditions noted are these: relative to vehicle-treated cells. The method, then:
as §1, §2

A further test has as its system HMLER cells. As to the kind of experiment: Scratch/wound-healing assay, HMLER cells expressing FOXC2 variants. In kind it is cell-based, human. The method, then: For this, phosphomimetic FOXC2(S367E) and non-phosphorylatable FOXC2(S367A) mutants were generated and their ability to bestow mesenchymal and stem-cell traits relative to wild-type FOXC2 (referred to as FOXC2) was evaluated.

For the compound `C[S+]([O-])c1ccc(-c2nc(-c3ccc(F)cc3)c(-c3ccncc3)[nH]2)cc1` (stereo not drawn) [SB203580, 4-(4-Fluorophenyl)-2-(4-methylsulfinylphenyl)-5-(4-pyridyl) 1H-imidazole], the “Expression of EMT markers” value in test [1] is “altered the expression of EMT markers”. For the same compound, in test [2], the “Leukemic cell clusters underneath imatinib-pretreated MSCs” value is given as “completely prevented leukemic cell cluster formation”. The “Phosphomimetic FOXC2(S367E) levels” value in the test with Foxc2 (4T1-FOXC2(S367E) cells) is “remained unaltered”. Moreover, the “Endogenous Foxc2 protein levels” value in the test with Foxc2 (4T1 cells, 24 h) is on record as “significant reduction of endogenous Foxc2 protein levels”; in the test with Foxc2 (vector-transduced 4T1 cells), “abolished endogenous Foxc2 protein levels”. Besides, the Migratory capacity result in the test with mesenchymal cells is listed as “markedly reduced the migratory capacity of mesenchymal cells”. Moreover, the Primary tumor size result in the test on 4T1 cells (4T1 cells, daily treatment, weeks 3-6) is “primary tumors of a similar size relative to vehicle-treated counterparts”. The “Lung metastases (bioluminescent signal)” value with 4T1 cells (4T1 cells, systemic daily treatment) is reported as “strikingly fewer lung metastases”. Besides, the “Metastatic burden (lung)” value in the test with 4T1 cells (mice harboring 4T1-FOXC2(S367E) cells) is recorded as “failed to significantly reduce the metastatic burden”. Besides, the “Reduction of incidence of lung metastases compared to vehicle” value in the test with 4T1 cells (mice harboring 4T1-vector cells, daily SB203580) is recorded as > 20 fold. For the same compound, in the test on 4T1 cells (mice harboring 4T1-vector or 4T1-FOXC2(S367E) cells), the Primary tumor growth result is reported as “no significant differences in primary tumor growth”. The “Microvessel density of primary tumors (CD31 immunohistochemistry)” value with 4T1 cells (vs vehicle-treated) was “did not reveal significant differences”. The “CTCs recovered from blood” value in the test on 4T1 cells (week 6 post-implantation) was “very few CTCs were recovered”; with 4T1 cells (weeks 3-5 post-implantation), “no CTCs were recovered from SB203580-treated mice until week 5”. In addition, the Sphere-formation entry in test [3] is reported as “substantially reduced sphere-formation”. Moreover, the Decrease in wound-closure in the test with HMLER cells (HMLER-FOXC2(S367E) cells) is < 30%. The “Inhibition of migration (wound closure)” value with HMLER cells (HMLER-FOXC2 cells) and in the test with HMLER cells (HMLER-vector cells) was > 70% each time.
